Results: patent publication US4088778A, “Method for the treatment of hypertension” (priority 1975, dated 1978)

Test: Clinical Test I, double blind: blood pressure
Format: in vivo, human patients
Details: for Maximum Blood Pressure in Hypertensives, Average Value ± S.D. / Maximum Blood Pressure, Average Value±S.D.: in mmHg (unit assumed)
Experimental: 94 patients of hypertension or arteriosclerosis having subjective symptoms were tested, and some of them suffered from complications such as ischemia heart disease, hypertensive heart disease and encephalomalacia.
As the active drug, there were employed hard capsules, each containing 100 mg of TN.
Two capsules were orally administered at one time, and the administration was conducted three times a day after eating. The period of the administration was principally 4 weeks or 6 weeks. During this period, the administration was performed continuously. Combined administration of drugs having the same function as that of TN (vitamin E drugs, nicotinic acid, its derivatives and peripheral vasolidators) was prohibited. Drugs which had been continuously administered since before the start of the administration of TN were similarly administered according to the disease case and symptom, and change of the prescription during the test was avoided.
With respect to data collected separately in the TN group and the P group, the significant difference was examined according to the statistical method.

[1] = 2 weeks, N 34, TN 200 mg three times a day
[2] = 4 weeks, N 38, TN 200 mg three times a day
[3] = 6 weeks, N 20, TN 200 mg three times a day
[4] = before administration, N 43, all patients (Table 6)

Which “maximum blood pressure in patients of hypertension” value (2, 4 or 6 weeks' administration) does the source give for `Cc1c(C)c2c(c(C)c1OC(=O)c1cccnc1)CCC(C)(CCCC(C)CCCC(C)CCCC(C)C)O2` (racemic) [TN, dl-α-tocopheryl nicotinate] here?
The value was “lowered by 2, 4 or 6 weeks' administration below the maximum blood pressure before the start of the administration”.

What about the “Maximum Blood Pressure in Hypertensives, Average Value ± S.D.” value (“Maximum Blood Pressure in Hypertensives” below) (2 weeks, N 28, P < 0.05 vs before) of the same compound?
The value was 143.8 ± 21.0.

And the “Minimum Blood Pressure, Average Value±S.D.” value (from here on “Minimum Blood Pressure”) [1]?
The value was 82.4±11.4.

And the “Maximum Blood Pressure, Average Value±S.D.” value [1]?
Its value is 139.7±21.1.

And the “Maximum Blood Pressure in Hypertensives” value (4 weeks, N 29, P < 0.02 vs before)?
The value was 143.1 ± 21.1.

And the “Minimum Blood Pressure” value [2]?
Its value is 80.6±10.3.

And the “Maximum Blood Pressure, Average Value±S.D.” value [2]?
The value was 140.0±20.3.

What about the “Maximum Blood Pressure in Hypertensives” value (6 weeks, N 13, P < 0.05 vs before) of the same compound?
The value was 139.2 ± 16.8.

What about the “Minimum Blood Pressure” value [3] of the same compound?
Its value is 79.1±7.0.

What about the “Maximum Blood Pressure, Average Value±S.D.” value [3] of the same compound?
Its value is 138.1±15.2.

And the “patients in whom administration was interrupted” value (TN 200 mg three times a day, 4 or 6 weeks, P group 3 patients)?
Its value is 2 patients.

And the “Minimum Blood Pressure” value [4]?
The value was 84.4±13.7.

And the “Maximum Blood Pressure, Average Value±S.D.” value [4]?
The value was 147.6±23.6.

What about the “Maximum Blood Pressure in Hypertensives” value (before administration, same 13 patients as 6 weeks) of the same compound?
The value was 151.2 ± 28.9.

And the “Maximum Blood Pressure in Hypertensives” value (before administration, same 28 patients as 2 weeks)?
The value was 151.0 ± 22.1.

What about the “Maximum Blood Pressure in Hypertensives” value (before administration, same 29 patients as 4 weeks) of the same compound?
Its value is 154.6 ± 24.8.
